Results reported in US20260226049A1, “NITROGEN-CONTAINING HETEROCYCLIC COMPOUND, PREPARATION METHOD THEREFOR, AND USE THEREOF” (BIVISION PHARMACEUTICALS, INC, priority 2023, published 2026).
Read-outs that look alike come from different tables or passages of the source.

Assays:
FAP protein = target: T1, FAP protein (Homo sapiens, UniProt Q12884); assay: Biacore test of ligand binding to FAP protein; settings: FAP protein on SA chip, 15° C., 1:1 binding model
T1 construct: purchased Sinobiological
T1 sequence (Q12884 1-760): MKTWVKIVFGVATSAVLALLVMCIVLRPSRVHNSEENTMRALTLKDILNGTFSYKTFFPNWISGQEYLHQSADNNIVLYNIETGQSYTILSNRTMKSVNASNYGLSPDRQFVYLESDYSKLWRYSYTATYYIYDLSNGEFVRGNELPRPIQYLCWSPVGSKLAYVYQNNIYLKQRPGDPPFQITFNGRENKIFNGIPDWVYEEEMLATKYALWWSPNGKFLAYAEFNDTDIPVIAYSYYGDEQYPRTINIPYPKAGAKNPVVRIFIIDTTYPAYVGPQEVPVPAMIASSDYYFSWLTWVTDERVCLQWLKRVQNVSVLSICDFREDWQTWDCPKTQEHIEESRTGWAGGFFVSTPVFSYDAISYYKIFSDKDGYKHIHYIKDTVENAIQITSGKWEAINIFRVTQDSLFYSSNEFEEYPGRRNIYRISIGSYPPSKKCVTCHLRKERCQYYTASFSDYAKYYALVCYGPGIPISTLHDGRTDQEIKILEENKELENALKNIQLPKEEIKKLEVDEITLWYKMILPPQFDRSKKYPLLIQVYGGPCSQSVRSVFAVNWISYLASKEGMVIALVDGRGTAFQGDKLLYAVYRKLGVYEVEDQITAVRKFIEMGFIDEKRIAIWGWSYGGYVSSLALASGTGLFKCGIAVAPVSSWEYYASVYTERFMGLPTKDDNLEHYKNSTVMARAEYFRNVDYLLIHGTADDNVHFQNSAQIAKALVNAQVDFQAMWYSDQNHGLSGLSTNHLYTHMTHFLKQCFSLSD
Experimental: The Biacore 8K (Cytiva) instrument was used to detect ligand binding of the FAP protein (Sinobiological). The FAP protein was captured on the SA chip. Before ligand immobilization (flow paths 1 and 2, flow rate of 10 μL/min), the FAP protein (10 μg/mL, flow rate of 5 μL/min, injection time of 600 s) was immobilized on flow path 2 using running buffer, and the sensor surface was conditioned with three consecutive injections of 1 M NaCl in 50 mM NaOH. After each ligand injection, additional washing was carried out with isopropanol in 1 M NaCl and 50 mM NaOH (flow paths 1 and 2, flow rate of 10 μL/min, injection time of 60 s).
The test compounds were dissolved in 100% dimethyl sulfoxide and diluted to 10 mM, then further diluted in the assay buffer (PBS, pH 7.4, 1 mM TCEP ([…]), 0.05% P20, 2% dimethyl sulfoxide) to appropriate maximum concentrations. The analyte was run under the following conditions: analysis temperature=15° C., analysis step=all set to LMW kinetics; cycle type=single cycle (90 s contact time, 1800 s dissociation time, 30 μL/min flow rate, flow channels 1, 2); flow channel detection=2-1). Data evaluation was performed using Biacore Insight Evaluation Software, and the data were fitted to a 1:1 binding model.
The Biacore results are shown in Table 1: pKD=−Log KD, where KD is the binding affinity of the compound to the FAP protein as measured by Biacore. The binding affinity is expressed by KD (M)=Kd(1/s)/Ka(1/Ms). Where A: pKD>8, B: 7<pKD<8, C: 6<pKD<7, D: pKD<6.

HT1080 8 #cells = assay: Cell competitive binding assay against ^177Lu-radiolabeled FAPi-46
Experimental: (1) HT1080 8 #cells in the logarithmic growth phase were prepared into a cell suspension, and the cell density was adjusted to 1×10^4/mL. 1 mL of the suspension was seeded into a 24-well cell culture plate. The plate was incubated overnight in a 37° C. incubator.
(2) The cell culture medium was aspirated, and the cells were washed once with PBS, followed by the addition of 975 μL of additive-free medium.
(3) To each well, 25 µL of ^177Lu-radiolabeled FAPi-46 (Nanchang Tanzhen Biotechnology Co., Ltd., CAS: 2374782-04-2) at a fixed concentration (final concentration in culture medium: 1.35 μCi/mL) and varying concentrations (final concentrations in culture medium: 1000 ng/mL, 100 ng/ml, 10 ng/ml, 1 ng/mL, 0.1 ng/ml, 0.01 ng/mL, 0.001 ng/mL, 0 ng/ml) of unlabeled test compounds JHH8, JHDB8, and JHH9 were added.
(4) The mixture was incubated on ice for 2 hours.
(5) The cells were washed three times with ice-cold PBS.
(6) The cells were lysed with 0.5 mL of 1 M sodium hydroxide, washed twice with 0.5 mL of PBS, and the sodium hydroxide solution (0.5 mL) and PBS solutions (0.5 mL×2) were collected for uptake counting.
The control compound was OncoFAP-DOTAGA (structural formula: […]
The cell competitive binding of compounds JHH5, JHH4, JHH10, JHH8, H4b, H5b, and H8b was tested in the same batch using the above method, and the experimental results are shown in Table 3 and FIG. 3.

Kd (FAP protein): < 10 nM | EC50 (HT1080 8 #cells; EC50 (ng/mL) converted with molecular weight, read-out: EC50): 1.82 nM | EC50 (HT1080 8 #cells; competition with ^177Lu-FAPi-46, on ice 2 hours): 1.726 ng/mL
Structure (SMILES): N#C[C@@H]1CC(F)(F)CN1C(=O)CNC(=O)c1cccc2c1CCN(C(=O)CCC(=O)NCCNC(=O)CCC(C(=O)O)N1CCN(CC(=O)O)CCN(CC(=O)O)CCN(CC(=O)O)CC1)C2 (stereo partly drawn) [JHH5]
